What was measured:
[1] = Spectral and fluorescent parameters of chlorin e6 conjugate in different systems; assay type: physicochemical
Experimental: Pigment-protein complexes have been formed by adding to the solution of human serum albumin (HAS) a specific amount of photosensitizer dissolved in the same buffer. […] Similarly, the photosensitizer was included in detergent micelle (Triton X-100, C=10^−3M).
The electronic absorption spectra of the subject solution were recorded on Specord UV-Vis. The fluorescence spectra and value of degree of fluorescence polarization (P) were recorded on an automatic spectrofluorimeter (Institute of Physics). Life time of photosensitizer fluorescence (ts) was estimated using an impulse fluorometer operating in the mode of photons counting.
The main feature of the absorption spectrum is intensive (ε=4.8 10^4 M^−1 cm^−1) Qx (0-0) band at 660 nm, which falls into the spectral window of the majority of biological tissues.
Complex formation of chlorin e6 conjugate, and HSA, liposomes or detergent micelles leads to bathochromic shift in the absorption and fluorescence spectra of pigment. However, an increase in fluorescence photoresponse (B) was observed, which correlates with the growth of life time (ts) without changing of the Kravec integral value.

HeLa tumor cells = experiment: Cytotoxicity (antiproliferative assay) in the absence of light exposure; assay type: cell-based; settings: for number of HeLa cells: no light, 24 hours
Experimental: Cytotoxicity was analyzed, considering the intensity of proliferative processes in cells, photosensitizer concentration, and dose of optical power. For each point, 3 flasks with cell monolayer were used.
The monolayer culture of HeLa tumor cells was chosen and used as the cell.
The culture of HeLa tumor cells was grown in nutrient medium 199 or in nutrient medium containing hemohydrolyzate supplemented with 10% fetal bovine serum and […] of kanamycin. […]
Flasks with light-protective cover (dark cytotoxicity) were incubated at 37.5° C. for 1 hour. The cells were washed with Hank's solution 4 times. 2.0 ml of fresh nutrient medium were added, and the cells were irradiated at the temperature of melting ice for 5, 10, 15 or 20 mins by the light flux of a “METALAZ” laser medical device (wavelength: 627.8 nm, 578.2 or 510.6 nm) or “LD 680-2000” (wavelength: 670-690 nm), depending on the wavelength of maximum spectral absorption of the studied photosensitizer, at a dose of 40 J/cm^2. After 20-24 hours, the number of tumor cell was counted in Goriaev's chamber.

Hela cells = experiment: Phototoxicity, 24 h incubation, 1.5-15 joule/cm^2; assay type: cell-based; settings: 670-690 nm
Experimental: In other experiment, the cells were incubated with photosensitizers at 37° C. for 24 hours, and irradiated by exposed on ice by a laser medical device “LD 680-2000” (wavelength of 670-690 nm) in a dose of 1.5-15 joule/cm^2.

sarcoma M-1 = experiment: Growth of sarcoma M-1 after PDT (tumor volume); assay type: in vivo, rats
Experimental: For this purpose, a laser medical instrument “ ? 680-2000” (BIOSPEC, Moscow) was used to perform the exposure at a wavelength of 670 nm in a dose of 100 J/cm^2. The power density was 0.51 W/cm^2, the output power was 0.4 W, and the spot light diameter was 1 cm. Time of exposure was […]. Monitoring over radiating power was conducted by a universal power meter included in the laser device “ ? 4680-2000”.

For “[γ-(6-aminohexyl)folic acid]-chlorin e6 [chlorin e6 conjugate]”, the “l^00abs” value ([1]; Dimethyl sulfoxide) was 661 Nm, the “l^00fl” value ([1]; Dimethyl sulfoxide) was 672 nm and the “tS (life time of fluorescence)” value ([1]; Dimethyl sulfoxide) was 4.6 ns. For the same substance, the “B (fluorescence photoresponse)” value ([1]; H2O, pH 8.1) was 0.16, the “l^00abs” value ([1]; H2O, pH 8.1) was 657 Nm and the “l^00fl” value ([1]; H2O, pH 8.1) was 664 nm. The “tS (life time of fluorescence)” value ([1]; H2O, pH 8.1) was 4.3 ns, the “B (fluorescence photoresponse)” value ([1]; HSA, pH 8.1) was 0.18 and the “l^00abs” value ([1]; HSA, pH 8.1) was 664 Nm. The “l^00fl” value ([1]; HSA, pH 8.1) was 669 nm, the “tS (life time of fluorescence)” value ([1]; HSA, pH 8.1) was 5.2 ns and the “B (fluorescence photoresponse)” value ([1]; Liposomes, pH 8.1) was 0.21. For the same substance, the “l^00abs” value ([1]; Liposomes, pH 8.1) was 665 Nm, the “l^00fl” value ([1]; Liposomes, pH 8.1) was 670 nm and the “tS (life time of fluorescence)” value ([1]; Liposomes, pH 8.1) was 5.4 ns. The “l^00abs” value ([1]; Methanol) was 662 Nm, the “l^00fl” value ([1]; Methanol) was 667 nm and the “tS (life time of fluorescence)” value ([1]; Methanol) was 4.8 ns. For the same substance, the “B (fluorescence photoresponse)” value ([1]; Pyridine) was 0.18, the “l^00abs” value ([1]; Pyridine) was 666 Nm and the “l^00fl” value ([1]; Pyridine) was 673 nm. The “tS (life time of fluorescence)” value ([1]; Pyridine) was 5.0 ns, the “l^00abs” value ([1]; Tetrahydrofuran) was 667 Nm and the “tS (life time of fluorescence)” value ([1]; Tetrahydrofuran) was 5.0 ns. For the same substance, the “B (fluorescence photoresponse)” value ([1]; Triton X-100, pH 8.1) was 0.19, the “l^00abs” value ([1]; Triton X-100, pH 8.1) was 665 Nm and the “l^00fl” value ([1]; Triton X-100, pH 8.1) was 670 nm. The “tS (life time of fluorescence)” value ([1]; Triton X-100, pH 8.1) was 5.7 ns, the “P (degree of fluorescence polarization)” value ([1]; in liposomes) was 0.13 and the cell survival rate (HeLa tumor cells; Hela cells, 24 hr incubation, absence of light exposure) was “about 90%”. For the same substance, the “number of HeLa cells” value (HeLa tumor cells; photosensitizer conc. 1 (μm)) was 102.1 percentage of the control, the “number of HeLa cells” value (HeLa tumor cells; photosensitizer conc. 2.5 (μm)) was 95.6 percentage of the control and the “number of HeLa cells” value (HeLa tumor cells; photosensitizer conc. 5.0 (μm)) was 94.1 percentage of the control. The “number of HeLa cells” value (HeLa tumor cells; photosensitizer conc. 10.0 (μm)) was 95.9 percentage of the control, the “number of HeLa cells” value (HeLa tumor cells; photosensitizer conc. 20.0 (μm)) was 89.0 percentage of the control and the “number of HeLa cells” value (HeLa tumor cells; photosensitizer conc. 30.0 (μm)) was 86.6 percentage of the control. The “phototoxicity in survival test” value (Hela cells) was “improved the photosensitivity”, the “Growth inhibition rate of sarcoma M-1 in volume to the control” value (shortened to “Growth inhibition rate”) (sarcoma M-1; 2.5 mg/100 g + 100 J/cm^2 for 1 h, day 7) was 47.5% and the “Growth inhibition rate” value (sarcoma M-1; 2.5 mg/100 g + 100 J/cm^2 for 1 h, day 10) was 79.4%. For the same substance, the “Growth inhibition rate” value (sarcoma M-1; 2.5 mg/100 g + 100 J/cm^2 for 1 h, day 12) was 87.6%, the “Growth inhibition rate” value (sarcoma M-1; 2.5 mg/100 g + 100 J/cm^2 for 1 h, day 14) was 89.8% and the “Growth inhibition rate” value (sarcoma M-1; 2.5 mg/100 g + 100 J/cm^2 for 1 h, day 17) was 94.8%. For the same substance, the “Growth inhibition rate” value (sarcoma M-1; 2.5 mg/100 g + 100 J/cm^2 for 1 h, day 19) was 94.1%, the “Growth inhibition rate” value (sarcoma M-1; 2.5 mg/100 g + 100 J/cm^2 for 1 h, day 21) was 94.2% and the “Growth inhibition rate” value (sarcoma M-1; 2.5 mg/100 g + 100 J/cm^2 for 1 h, day 24) was 93.6%. For the same substance, the “volume of sarcoma M-1” value (sarcoma M-1; 2.5 mg/kg + 100 J/cm^2 for 1 h, day 7 after tumor transplant) was 0.25 ± 0.03 cm^3, the “volume of sarcoma M-1” value (sarcoma M-1; 2.5 mg/kg + 100 J/cm^2 for 1 h, day 10) was 0.28 ± 0.03 cm^3 and the “volume of sarcoma M-1” value (sarcoma M-1; 2.5 mg/kg + 100 J/cm^2 for 1 h, day 12) was 0.34 ± 0.06 cm^3. The “volume of sarcoma M-1” value (sarcoma M-1; 2.5 mg/kg + 100 J/cm^2 for 1 h, day 14) was 0.41 ± 0.09 cm^3, the “volume of sarcoma M-1” value (sarcoma M-1; 2.5 mg/kg + 100 J/cm^2 for 1 h, day 17) was 0.46 ± 0.11 cm^3 and the “volume of sarcoma M-1” value (sarcoma M-1; 2.5 mg/kg + 100 J/cm^2 for 1 h, day 19) was 0.69 ± 0.27 cm^3. The “volume of sarcoma M-1” value (sarcoma M-1; 2.5 mg/kg + 100 J/cm^2 for 1 h, day 21) was 0.96 ± 0.38 cm^3, the “volume of sarcoma M-1” value (sarcoma M-1; 2.5 mg/kg + 100 J/cm^2 for 1 h, day 24) was 1.19 ± 0.48 cm^3 and the “Growth inhibition rate” value (sarcoma M-1; 5 mg/100 g + 100 J/cm^2 for 1 h, day 7) was 36.9%. The “Growth inhibition rate” value (sarcoma M-1; 5 mg/100 g + 100 J/cm^2 for 1 h, day 10) was 77.9%, the “Growth inhibition rate” value (sarcoma M-1; 5 mg/100 g + 100 J/cm^2 for 1 h, day 12) was 89.1% and the “Growth inhibition rate” value (sarcoma M-1; 5 mg/100 g + 100 J/cm^2 for 1 h, day 14) was 92.6%. For the same substance, the “Growth inhibition rate” value (sarcoma M-1; 5 mg/100 g + 100 J/cm^2 for 1 h, day 17) was 95.8%, the “Growth inhibition rate” value (sarcoma M-1; 5 mg/100 g + 100 J/cm^2 for 1 h, day 19) was 95.9% and the “Growth inhibition rate” value (sarcoma M-1; 5 mg/100 g + 100 J/cm^2 for 1 h, day 21) was 96.9%. For the same substance, the “Growth inhibition rate” value (sarcoma M-1; 5 mg/100 g + 100 J/cm^2 for 1 h, day 24) was 97.1%, the “volume of sarcoma M-1” value (sarcoma M-1; 5 mg/kg + 100 J/cm^2 for 1 h, day 7 after tumor transplant) was 0.29 ± 0.02 cm^3 and the “volume of sarcoma M-1” value (sarcoma M-1; 5 mg/kg + 100 J/cm^2 for 1 h, day 10) was 0.300 ± .03 cm^3. For the same substance, the “volume of sarcoma M-1” value (sarcoma M-1; 5 mg/kg + 100 J/cm^2 for 1 h, day 12) was 0.30 ± 0.03 cm^3, the “volume of sarcoma M-1” value (sarcoma M-1; 5 mg/kg + 100 J/cm^2 for 1 h, day 14) was 0.30 ± 0.03 cm^3 and the “volume of sarcoma M-1” value (sarcoma M-1; 5 mg/kg + 100 J/cm^2 for 1 h, day 17) was 0.37 ± 0.05 cm^3. For the same substance, the “volume of sarcoma M-1” value (sarcoma M-1; 5 mg/kg + 100 J/cm^2 for 1 h, day 19) was 0.47 ± 0.11 cm^3, the “volume of sarcoma M-1” value (sarcoma M-1; 5 mg/kg + 100 J/cm^2 for 1 h, day 21) was 0.50 ± 0.14 cm^3 and the “volume of sarcoma M-1” value (sarcoma M-1; 5 mg/kg + 100 J/cm^2 for 1 h, day 24) was 0.54 ± 0.17 cm^3. The “Growth inhibition rate” value (sarcoma M-1; 10 mg/100 g + 100 J/cm^2 for 1 h, day 7) was 56.5%, the “Growth inhibition rate” value (sarcoma M-1; 10 mg/100 g + 100 J/cm^2 for 1 h, day 10) was 86.0% and the “Growth inhibition rate” value (sarcoma M-1; 10 mg/100 g + 100 J/cm^2 for 1 h, day 12) was 93.8%. For the same substance, the “Growth inhibition rate” value (sarcoma M-1; 10 mg/100 g + 100 J/cm^2 for 1 h, day 14) was 95.8%, the “Growth inhibition rate” value (sarcoma M-1; 10 mg/100 g + 100 J/cm^2 for 1 h, day 17) was 98.1% and the “Growth inhibition rate” value (sarcoma M-1; 10 mg/100 g + 100 J/cm^2 for 1 h, day 19) was 95.2%. For the same substance, the “Growth inhibition rate” value (sarcoma M-1; 10 mg/100 g + 100 J/cm^2 for 1 h, day 21) was 98.8%, the “Growth inhibition rate” value (sarcoma M-1; 10 mg/100 g + 100 J/cm^2 for 1 h, day 24) was 98.9% and the “volume of sarcoma M-1” value (sarcoma M-1; 10 mg/kg + 100 J/cm^2 for 1 h, day 7 after tumor transplant) was 0.20 ± 0.03 cm^3. The “volume of sarcoma M-1” value (sarcoma M-1; 10 mg/kg + 100 J/cm^2 for 1 h, day 10) was 0.19 ± 0.04 cm^3, the “volume of sarcoma M-1” value (sarcoma M-1; 10 mg/kg + 100 J/cm^2 for 1 h, day 12) was 0.17 ± 0.03 cm^3 and the “volume of sarcoma M-1” value (sarcoma M-1; 10 mg/kg + 100 J/cm^2 for 1 h, day 14) was 0.17 ± 0.03 cm^3. The “volume of sarcoma M-1” value (sarcoma M-1; 10 mg/kg + 100 J/cm^2 for 1 h, day 17) was 0.17 ± 0.03 cm^3, the “volume of sarcoma M-1” value (sarcoma M-1; 10 mg/kg + 100 J/cm^2 for 1 h, day 19) was 0.17 ± 0.03 cm^3 and the “volume of sarcoma M-1” value (sarcoma M-1; 10 mg/kg + 100 J/cm^2 for 1 h, day 21) was 0.20 ± 0.03 cm^3. The “volume of sarcoma M-1” value (sarcoma M-1; 10 mg/kg + 100 J/cm^2 for 1 h, day 24) was 0.20 ± 0.03 cm^3 and the “inhibition rate of tumor volumetric growth compared to the control” value (sarcoma M-1; rats with sarcoma M-1, monitored for 24 days after PDT) was 86.34-99.1%.

— US8735439B2, “Chlorin e6-folic acid conjugate, preparation method thereof, and a pharmaceutical composition for the treatment of cancer comprising the same” (Diatech Korea Co., Ltd., priority 2009, dated 2014)
